{
  "source": "paper PMC10177262",
  "about": "“A Novel CD206 Targeting Peptide Inhibits Bleomycin-Induced Pulmonary Fibrosis in Mice” (Cells, 2023)",
  "system": "BLM-induced lung fibrosis in C57BL/6J mice",
  "assay": "Late BLM model, comparison and combination with Pirfenidone",
  "assay_type": "in vivo, mouse",
  "conditions": "RP-832c 10 mg/kg QD; Pirfenidone 30 mg/kg Q3D; monotherapy, 21 days; n = 6",
  "procedure": "C57BL/6J mice were obtained from Envigo, Indianapolis, IN, USA. All animal studies were approved by the IACUC (Murigenics, Inc., Vallejo, CA, USA). After 3 days of acclimation, the mice were challenged with a single 2.5 U/kg body weight dose of bleomycin (BLM) intratracheally (IT), and a vehicle (normal saline) or RP-832c(QD) was administered subcutaneously for 21 days starting 3- and 14-days post-BLM-challenge. Body weights were measured daily, and lung weight was measured at the end of each study.\nAt the end of the study, the mice were sacrificed using CO2 followed by cervical dislocation (according to IACUC guidelines), and the lungs were collected and fixed in 10% formalin. After 48 h of fixation, the lungs were processed into tissue sections. […] All slides were scanned using a Leica Aperio SC2 scanner and blindly evaluated by two independent pathologists. A total of 10 representative fields of 20× IHC images per tissue section were individually analyzed for the total number of cells/area using a confocal microscope (Olympus, New York, NY, USA). All quantitative data were normalized to appropriate control images.\nPirfenidone and Nintedanib are the only two FDA-approved drugs for lung fibrosis; therefore, we tested any synergistic effects of RP-832c peptide with these drugs. […] Combination therapy was also evaluated (Figure 5A and Figure S5). […]",
  "data": [
    {"smiles": "Cc1ccc(=O)n(-c2ccccc2)c1", "note": "[Pirfenidone]", "values": [
      {"measurement": "CD206 expression in lung (IHC)", "result": "decreased CD206 expression"}
    ]}
  ]
}
